Measurements as given in EP0706509B1, “SHORT CHAIN 2-HYDROXYCARBOXYLIC ACID-BASED DERIVATIVES OF CERAMIDES” (DSM N.V., priority 1994, dated 1995).

Tests used:
healthy human skin [1] = experiment: Skin roughness by profilometry (mean depth of roughness Rz) on volar forearms, 7 days of treatment then SDS irritation; assay type: in vivo; parameters: unit not given here
Experimental: Roughness was measured by profilometry using a stylus instrument (OFR 01; Romano GmbH, Cologne, Germany). Silicon impressions from the test areas of the volar forearm were prepared. The dental mass Silasoft N® (Detax-K. Huber K.G., Karlsruhe, Germany) was used for making the impressions. The parameter mean depth of roughness Rz (DIN 4768/1) was measured. By convention the scan length was divided into […] equal-sized areas. In each area the distance from the highest peak to the lowest trough was established. The average of these five distances is Rz.
(§1) Two panels of each five female volunteers at the age of 19-55 years with healthy skin were included in the test.
(§2) Measurements were carried out at a temperature of 22±1°C and a relative humidity of 60±10%. Subjects were accustomed to ambient conditions for 20 min prior to any measurement. The test was carried out on the volar forearms. Initially untreated skin was measured in all six areas to find baseline values. Then the five test products were applied, one area remained untreated. The dose of applicaton was about 2 mg/cm^2. In the following 7 days a home application in the morning and evening took place. Measurements were evaluated during the treatment period on day 7 two hours after the last daily application. Then the test areas on both forearms were treated with a 5% aqueous solution of sodium lauryl sulphate (SDS) and an occlusive dressing applied to induce skin irritation. The dressing was removed two hours later, and the regions were gently washed with water and air-dried. After one hour the measurements were done when the level had stabilised.
(§3) Use of other cosmetic products was restricted on the test areas throughout the whole study.
(§4) • before start treatment; • two hours after last application on day 7; • 1 hour after irritation with SDS (2 hours under occlusion).

[2] = test system: barrier function of the skin; experiment: Skin colour by chromametry (Minolta Chromameter CR 300) on volar forearms, 7 days of treatment then SDS irritation; assay type: in vivo, human; parameters: key: CIE a* value (green-red axis); higher = redder skin
Experimental: Skin colour was measured by chromametry with a Minolta Chromameter CR 300 (Minolta, Ahrensburg, Germany) in compliance with the Commission International de l'eclairage (CIE) system, according to which the registration of colour is adjusted to the non-linear colour sensitivity of human eye. A colour is expressed in a three-dimensional coordinate system with green-red (a*), yellow-blue (b*) and L* axes (brightness). The skin surface is illuminated by a Xenon flash light and remitted light registered and analysed by a photoreceiver. Chromametry is sensitive and accurate for the characterization of redness of skin irritation. In inflamed skin a positive change on the a* axis is observed, towards red. Each value was the average of three recordings.
as §1, §2, §3, §4

[3] = test system: barrier function of the skin; experiment: Trans-epidermal water loss (TEWL, Tewameter) on volar forearms, 7 days of treatment then SDS irritation; assay type: in vivo, human; parameters: unit not given here
Experimental: Measurements of trans-epidermal water loss (TEWL) were performed with the Tewameter (Courage & Khazaka, Cologne, Germany). The Tewameter is a device for measurement of water evaporation on skin surfaces based on the diffusion principle discovered by A. Fick in 1885.
as §1, §2, §3, §4

healthy human skin [4] = experiment: Desquamation: dansyl chloride fluorescence extraction score on volar forearms, 7 days of treatment then SDS irritation; assay type: in vivo
Experimental: The stratum corneum was stained with dansyl chloride. Dansyl chloride was mixed to homogeneity at 5% (w/w) in petrolatum and applied to the volar forearms of the volunteers under semi-occlusive tape, one day before the beginning of the study. After 24 h the patches were removed and any excess material wiped off under running tape water. Fluorescence was assessed under UV illumination for intensity and homogeneity by a trained evaluator using the following scale for fluorescence extraction: • 0 : no fluorenscence extraction • 1 : slight fluorescence extraction • 2 : moderate fluorescence extraction • 3 : strong fluorescence extraction • 4 : complete fluorescence extraction. Half scores were used when needed.
as §1, §2, §3, §4

[5] = 0.05% in oil-in-water emulsion, 7 days pretreatment, after SDS (5% aqueous, 2 h occlusion, measured 1 h later)
[6] = 0.05% in oil-in-water emulsion, about 2 mg/cm^2 morning and evening, after 7 days
[7] = 0.05% in oil-in-water emulsion, day 0 (baseline before start of treatment)
[8] = 0.2% in oil-in-water emulsion, 7 days pretreatment, after SDS (5% aqueous, 2 h occlusion, measured 1 h later)
[9] = 0.2% in oil-in-water emulsion, about 2 mg/cm^2 morning and evening, after 7 days
[10] = 0.2% in oil-in-water emulsion, day 0 (baseline before start of treatment)
[11] = 0.5% in oil-in-water emulsion, 7 days pretreatment, after SDS (5% aqueous, 2 h occlusion, measured 1 h later)
[12] = 0.5% in oil-in-water emulsion, about 2 mg/cm^2 morning and evening, after 7 days
[13] = 0.5% in oil-in-water emulsion, day 0 (baseline before start of treatment)
[14] = 0.05% in oil-in-water emulsion, 7 days pretreatment, after SDS (5% aqueous, 2 h occlusion), scale 0 to 4
[15] = 0.05% in oil-in-water emulsion, morning and evening, after 7 days, scale 0 (no) to 4 (complete fluorescence extraction)
[16] = 0.05% in oil-in-water emulsion, day 0 (baseline), scale 0 (no) to 4 (complete fluorescence extraction)
[17] = 0.2% in oil-in-water emulsion, 7 days pretreatment, after SDS (5% aqueous, 2 h occlusion), scale 0 to 4
[18] = 0.2% in oil-in-water emulsion, day 0 (baseline), scale 0 (no) to 4 (complete fluorescence extraction)
[19] = 0.5% in oil-in-water emulsion, 7 days pretreatment, after SDS (5% aqueous, 2 h occlusion), scale 0 to 4
[20] = 0.5% in oil-in-water emulsion, day 0 (baseline), scale 0 (no) to 4 (complete fluorescence extraction)

SMILES	Skin roughness (healthy human skin [1]; [5])	Skin roughness (healthy human skin [1]; [6])	Skin roughness (healthy human skin [1]; [7])	Skin roughness (healthy human skin [1]; [8])	Skin roughness (healthy human skin [1]; [9])	Skin roughness (healthy human skin [1]; [10])	Skin roughness (healthy human skin [1]; [11])	Skin roughness (healthy human skin [1]; [12])	Skin roughness (healthy human skin [1]; [13])	skin colour [2, 5]	skin colour [2, 6]	skin colour [2, 7]	skin colour [2, 8]	skin colour [2, 9]	skin colour [2, 10]	skin colour [2, 11]	skin colour [2, 12]	skin colour [2, 13]	TEWL [3, 5]	TEWL [3, 6]	further results
CCCCCCCCCCCCCC[C@@H](O)[C@@H](O)[C@H](CO)NC(=O)[C@H](C)O [Cer6/OH-C3, N-[(S)-2-hydroxypropanoyl]-phytosphingosine]	96.9 ± 8.1	109.1 ± 16.4	131.2 ± 15.5	92.9 ± 9.7	91.9 ± 9.9	104.7 ± 9	116.5 ± 14.8	112.9 ± 15.2	131.1 ± 15.2	13.1 ± 1.8	7.6 ± 0.8	6.7 ± 0.4	11.4 ± 0.6	8.5 ± 0.9	7.8 ± 0.9	9.5 ± 1.3	8.7 ± 0.7	8.2 ± 0.5	16.6 ± 5.2	8.2 ± 3.5	TEWL [3, 7]: 5 ± 1.1; TEWL [3, 8]: 13.5 ± 6; TEWL [3, 9]: 7.2 ± 1.6; TEWL [3, 10]: 6.1 ± 1.5; TEWL [3, 11]: 11.6 ± 3.3; TEWL [3, 12]: 8 ± 1.9; TEWL [3, 13]: 6 ± 1.2; Desquamation (fluorescence extraction) (healthy human skin [4]; [14]): 0,8 ± 0,4; Desquamation (fluorescence extraction) (healthy human skin [4]; [15]): 0,2 ± 0,4; Desquamation (fluorescence extraction) (healthy human skin [4]; [16]): 0; Desquamation (fluorescence extraction) (healthy human skin [4]; [17]): 1 ± 0; Desquamation (fluorescence extraction) (healthy human skin [4]; 0.2% in oil-in-water emulsion, morning and evening, after 7 days, scale 0 (no) to 4 (complete fluorescence extraction)): 0,2 ± 0,4; Desquamation (fluorescence extraction) (healthy human skin [4]; [18]): 0; Desquamation (fluorescence extraction) (healthy human skin [4]; [19]): 1 ± 0; Desquamation (fluorescence extraction) (healthy human skin [4]; [20]): 0
CCCCCCCCCCCCCC[C@@H](O)[C@@H](O)[C@H](CO)NC(=O)C(O)CCCCCC (stereo partly shown) [Cer6/OH-C8, N-(2-hydroxyoctanoyl)-phytosphingosine]	121.8 ± 11.6	119.1 ± 8.8	133.6 ± 12.5	118.7 ± 7.6	118.5 ± 8.2	147.1 ± 15.5	82.2 ± 7.1	98 ± 6.9	111.2 ± 6	9.2 ± 0.8	6.2 ± 1.2	7 ± 1.2	8.4 ± 0.5	6.3 ± 0.7	6.8 ± 0.5	10.2 ± 0.9	8.3 ± 1.1	6.5 ± 0.6	14.7 ± 4.2	5.7 ± 1.9	TEWL [3, 7]: 5.7 ± 1.3; TEWL [3, 8]: 10.12 ± 1.9; TEWL [3, 9]: 5.5 ± 1.6; TEWL [3, 10]: 5.4 ± 0.7; TEWL [3, 11]: 13 ± 4.4; TEWL [3, 12]: 7.9 ± 2.7; TEWL [3, 13]: 6.5 ± 2.2; Desquamation (fluorescence extraction) (healthy human skin [4]; [14]): 0.8 ± 0.4; Desquamation (fluorescence extraction) (healthy human skin [4]; [15]): 0,4 ± 0,5; Desquamation (fluorescence extraction) (healthy human skin [4]; [16]): 0; Desquamation (fluorescence extraction) (healthy human skin [4]; [17]): 0,8 ± 0,4; Desquamation (fluorescence extraction) (healthy human skin [4]; [18]): 0; Desquamation (fluorescence extraction) (healthy human skin [4]; [19]): 1 ± 0; Desquamation (fluorescence extraction) (healthy human skin [4]; 0.5% in oil-in-water emulsion, morning and evening, after 7 days, scale 0 (no) to 4 (complete fluorescence extraction)): 0,4 ± 0,5; Desquamation (fluorescence extraction) (healthy human skin [4]; [20]): 0
